Patent US10808005B2, “Ligand for orphan nuclear receptor Nur77 and uses thereof” (IXMEDICINE (XIAMEN) BIOLOGICAL TECHNOLOGY COMPANY LIMITED, priority 2016, dated 2020)
Where two headings read alike, the source gives them in different places.

What was measured:
MDA-MB-231 cells = assay: Immunoblot of parp (apoptosis) in MDA-MB-231 cells; type: cell-based; details: 4 μM and TNFα (20 ng/ml)
Nur77-LBD = Nur77-LBD (Homo sapiens, UniProt P22736); assay: Surface plasmon resonance (Biacore T200) binding to Nur77-LBD
Nur77-LBD, sequence (P22736 360-595 limits assumed): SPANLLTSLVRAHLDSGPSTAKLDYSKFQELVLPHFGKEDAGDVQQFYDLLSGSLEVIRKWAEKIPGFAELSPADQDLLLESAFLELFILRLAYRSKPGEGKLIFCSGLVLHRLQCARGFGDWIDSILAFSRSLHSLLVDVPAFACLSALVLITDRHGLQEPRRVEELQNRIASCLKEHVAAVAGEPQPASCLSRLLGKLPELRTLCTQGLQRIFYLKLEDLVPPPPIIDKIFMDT

mTOR signaling pathway = assay: Immunoblot of p-mTOR, p-P70S6K, p-S6 in TNFα-treated starved MDA-MB-231 cells; type: cell-based; details: MDA-MB-231, serum-free 10 h; 2 μM and TNFα (20 ng/ml)
MDA-MB-231 = assay: Proliferation of MDA-MB-231 breast cancer cells; type: cell-based; details: Homo sapiens
[1] = test system: BT474, ZR-75-1, BT549, HCC1937, HS578T, MCF-7, and T47D; assay: Inhibition rate on seven breast cancer cells; type: cell-based; details: various breast cancer cells, FIG. 11C
[2] = test system: IκBα and phosphorylated IKKα/β; assay: Immunoblot of IκBα and phosphorylated IKKα/β in TNFα-treated HepG2 cells; type: cell-based; details: TNFα 20 ng/mL 30 minutes
Source text: IκBα and phosphorylated IKKα/β in the cells were then detected by WB.
In addition, HepG2 cells were also applied in the experiment. […] IκBα in the cells was then detected by WB.

MCF-7 = assay: Proliferation of MCF-7 breast cancer cells; type: cell-based; details: Homo sapiens, read-out: IC50 for inhibiting the proliferation
MDA-MB-468 = assay: Proliferation of MDA-MB-468 breast cancer cells; type: cell-based; details: Homo sapiens, MDA-MB-468, 72 h; read-out: IC50 for inhibiting the proliferation
BT549 = assay: Proliferation of BT549 breast cancer cells; type: cell-based; details: Homo sapiens, BT-549; BT549, 72 h; read-out: IC50 for inhibiting the proliferation
SKBR3 = assay: Proliferation of SKBR3 breast cancer cells; type: cell-based; details: Homo sapiens, SK-BR-3; SKBR3, 72 h; read-out: IC50 for inhibiting the proliferation
T47D = assay: Proliferation of T47D breast cancer cells; type: cell-based; details: Homo sapiens, 72 h, read-out: IC50 for inhibiting the proliferation
wild-type Hela cells = assay: Proliferation of wild-type Hela cells; type: cell-based; details: Homo sapiens
[3] = test system: Nur77 knocked-out Hela cells; assay: Proliferation of Nur77 knocked-out Hela cells; type: cell-based; details: Homo sapiens
[4] = Acute toxicity model mice, histopathology; type: in vivo
Source text: The tissue morphologies of the heart, liver, small intestine, white fat and kidney were observed by Histopathological method.

[5] = Biacore T200, read-out: dissociation constant (Kd) to Nur77-LBD
[6] = MDA-MB-231, FIG. 11B, read-out: IC50 for the inhibition of proliferation
[7] = single intragastric injection 200 mg/kg
[8] = single intraperitoneal injection 20 mg/kg

Q: For COC(=O)[C@]1(C)CC[C@]2(C)CC[C@]3(C)C4=CC(S(=O)(=O)[O-])c5c(cc(O)c(O)c5C)[C@]4(C)CC[C@@]3(C)[C@@H]2C1.[Na+] (stereo partly shown) [XS0508], which “PARP cleavage in comparison with YXY101” value (MDA-MB-231 cells) is on record?
A: Its value is “can more significantly induce PARP cleavage”.

Q: What does the source list for CCOC(=O)OC1=C(C)C2=CC=C3[C@@](C)(CC[C@@]4(C)[C@@H]5C[C@](C)(C(=O)O)CC[C@]5(C)CC[C@]34C)C2=CC1=O [XS0394]?
A: Kd (Nur77-LBD; [5]): 1260 nM; P-mTOR, P-p70S6K, and P—S6 in comparison with YXY101 (mTOR signaling pathway): can more significantly reduce P-mTOR, P-p70S6K, and P—S6

Q: For Cc1c(O)c(O)cc2c1CC=C1[C@@]2(C)CC[C@@]2(C)[C@@H]3C[C@](C)(C(=O)O)CC[C@]3(C)CC[C@]12C [XS0419], which Kd (Nur77-LBD) is on record?
A: Its Kd is 404 nM.

Q: And the IC50 (MDA-MB-231; [6])?
A: The IC50 was 1270 nM.

Q: What about the “PARP cleavage in comparison with YXY101” value (MDA-MB-231 cells) of the same compound?
A: Its value is “can more significantly induce PARP cleavage”.

Q: What about the “P-mTOR, P-p70S6K, and P—S6 in comparison with YXY101” value (shortened to “P-mTOR, P-p70S6K, and P—S6”) (mTOR signaling pathway) of the same compound?
A: The value was “can more significantly reduce P-mTOR, P-p70S6K, and P—S6”.

Q: And the “inhibitory effects on proliferation compared with YXY101” value [1]?
A: Its value is “close or even stronger than that of YXY101”.

Q: For COP(=O)(OC)OC(=O)[C@]1(C)CC[C@]2(C)CC[C@]3(C)C4=CC=C5C(=CC(=O)C(O)=C5C)[C@]4(C)CC[C@@]3(C)[C@@H]2C1 [XS0486], which “P-mTOR, P-p70S6K, and P—S6” value (mTOR signaling pathway) is on record?
A: Its value is “can more significantly reduce P-mTOR, P-p70S6K, and P—S6”.

Q: Which results are given for CCOC(=O)COC(=O)[C@]1(C)CC[C@]2(C)CC[C@]3(C)C4=CC=C5C(=CC(=O)C(O)=C5C)[C@]4(C)CC[C@@]3(C)[C@@H]2C1 [XS0418]?
A: Kd (Nur77-LBD; [5]): 3670 nM; PARP cleavage in comparison with YXY101 (MDA-MB-231 cells): can more significantly induce PARP cleavage; P-mTOR, P-p70S6K, and P—S6 in comparison with YXY101 (mTOR signaling pathway): can more significantly reduce P-mTOR, P-p70S6K, and P—S6; inhibitory effects on proliferation compared with YXY101 [1]: close or even stronger than that of YXY101

Q: With COc1ccc(NC(=O)[C@]2(C)CC[C@]3(C)CC[C@]4(C)C5=CC=C6C(=CC(=O)C(O)=C6C)[C@]5(C)CC[C@@]4(C)[C@@H]3C2)cc1 [XS0287] as the compound, how does the “TNFα-induced degradation of IκBα” value [2] read?
A: The value was “capable of inhibiting TNFα-induced degradation of IκBα”.

Q: Which results are given for CCCC(=O)OC1=C(C)C2=CC=C3[C@@](C)(CC[C@@]4(C)[C@@H]5C[C@](C)(C(=O)OC)CC[C@]5(C)CC[C@]34C)C2=CC1=O [XS0488]?
A: Kd (Nur77-LBD; [5]): 1280 nM; IC50 (MDA-MB-231; [6]): 1900 nM; inhibitory effects on proliferation compared with YXY101 [1]: close or even stronger than that of YXY101

Q: Which “inhibitory effects on proliferation compared with YXY101” value [1] does the source give for CCOC(=O)[C@]1(C)CC[C@]2(C)CC[C@]3(C)C4=CC=C5C(=CC(=O)C(O)=C5C)[C@]4(C)CC[C@@]3(C)[C@@H]2C1 [XS0462] here?
A: Its value is “close or even stronger than that of YXY101”.

Q: Which results are given for COC(=O)[C@]1(C)CC[C@]2(C)CC[C@]3(C)C4=CC=C5C(=CC(=O)C(O)=C5C)[C@]4(C)CC[C@@]3(C)[C@@H]2C1 [XS0077]?
A: IC50 (MDA-MB-231; MDA-MB-231, read-out: IC50 for the inhibition of proliferation): 1840 nM; PARP cleavage in comparison with YXY101 (MDA-MB-231 cells): can more significantly induce PARP cleavage

Q: Which results are given for Cc1c(O)c(O)cc2c1CC=C1[C@@]2(C)CC[C@@]2(C)[C@@H]3C[C@](C)(CO)CC[C@]3(C)CC[C@]12C [XS0503]?
A: IC50 (MDA-MB-231; MDA-MB-231, 24 h, read-out: IC50 for inhibiting the proliferation): 1190 nM; IC50 (MCF-7; MCF7, MCF-7, 24 h): 2650 nM

Q: For [2H]C1C=C2[C@@](C)(CC[C@@]3(C)[C@@H]4C[C@](C)(C(=O)O)CC[C@]4(C)CC[C@]23C)c2cc(O)c(O)c(C)c21 (stereo partly shown) [XS0474], which Kd (Nur77-LBD) is on record?
A: The Kd was 2600 nM.

Q: And the IC50 (MDA-MB-231; [6])?
A: Its IC50 is 2930 nM.

Q: And the “P-mTOR, P-p70S6K, and P—S6” value (mTOR signaling pathway)?
A: The value was “can more significantly reduce P-mTOR, P-p70S6K, and P—S6”.

Q: With CCOP(=O)(OCC)OC(=O)[C@]1(C)CC[C@]2(C)CC[C@]3(C)C4=CC=C5C(=CC(=O)C(O)=C5C)[C@]4(C)CC[C@@]3(C)[C@@H]2C1 [XS0491] as the compound, how does the Kd (Nur77-LBD) read?
A: The Kd was 336 nM.

Q: And the “P-mTOR, P-p70S6K, and P—S6” value (mTOR signaling pathway)?
A: The value was “can more significantly reduce P-mTOR, P-p70S6K, and P—S6”.

Q: Which results are given for Cc1c(O)c(O)cc2c1CCC1[C@@]2(C)CC[C@@]2(C)[C@@H]3C[C@](C)(C(=O)O)CC[C@]3(C)CC[C@]12C (stereo partly shown) [XS0335]?
A: IC50 (MDA-MB-231; [6]): 1880 nM; P-mTOR, P-p70S6K, and P—S6 in comparison with YXY101 (mTOR signaling pathway): can more significantly reduce P-mTOR, P-p70S6K, and P—S6

Q: For CC1=C(O)C(=O)C=C2C1=CC=C1[C@@]2(C)CC[C@@]2(C)[C@@H]3C[C@](C)(C(=O)OCc4ccccc4)CC[C@]3(C)CC[C@]12C [XS0285], which “inhibitory effects on proliferation compared with YXY101” value [1] is on record?
A: The value was “close or even stronger than that of YXY101”.

Q: What does the source list for CC1=C(O)C(=O)C=C2C1=CC=C1[C@@]2(C)CC[C@@]2(C)[C@@H]3C[C@](C)(C(=O)OP(=O)(OC(C)C)OC(C)C)CC[C@]3(C)CC[C@]12C [XS0492]?
A: Kd (Nur77-LBD; [5]): 1300 nM; PARP cleavage in comparison with YXY101 (MDA-MB-231 cells): can more significantly induce PARP cleavage; P-mTOR, P-p70S6K, and P—S6 in comparison with YXY101 (mTOR signaling pathway): can more significantly reduce P-mTOR, P-p70S6K, and P—S6

Q: Which IC50 (MDA-MB-231; MDA-MB-231, 72 h, read-out: IC50 for inhibiting the proliferation) does the source give for CC1=C(O)C(=O)C=C2C1=CC=C1[C@@]2(C)CC[C@@]2(C)[C@@H]3C[C@](C)(C(=O)O)CC[C@]3(C)CC[C@]12C [YXY101, Celastrol] here?
A: The IC50 was 1200 nM.

Q: What about the IC50 (MDA-MB-468) of the same compound?
A: Its IC50 is 187 nM.

Q: What about the IC50 (BT549) of the same compound?
A: The IC50 was 245 nM.

Q: And the IC50 (SKBR3)?
A: The IC50 was 2650 nM.

Q: What about the IC50 (T47D) of the same compound?
A: The IC50 was 74500 nM.

Q: And the IC50 (MCF-7; MCF7, 72 h)?
A: Its IC50 is 11500 nM.

Q: What about the IC50 (wild-type Hela cells) of the same compound?
A: Its IC50 is 1190 nM.

Q: And the IC50 [3]?
A: Its IC50 is 58200 nM.

Q: What about the adipose tissue morphology [4, 7] of the same compound?
A: Its adipose tissue morphology is “the adipose tissue cells were arranged disorderly and some of the fibers were broken”.

Q: What about the heart tissue morphology [4, 7] of the same compound?
A: Its heart tissue morphology is “arranged disorderly”.

Q: And the liver tissue morphology [4, 7]?
A: The liver tissue morphology was “the lobuli hepatis boundaries were blurred, the cytoplasm was reduced, and most of the hepatocytes died”.

Q: What about the “small intestine tissue morphology” value [4, 7] of the same compound?
A: Its value is “the intestinal tissue was swollen apparently, the cell death increases, the inflammatory reaction was obvious, the intestinal villi were arranged disorderly”.

Q: And the adipose tissue morphology [4, 8]?
A: The adipose tissue morphology was “the adipose tissue cells were arranged disorderly and had many inflammatory cell infiltration”.

Q: And the heart tissue morphology [4, 8]?
A: Its heart tissue morphology is “arranged disorderly”.

Q: What about the kidney tissue morphology [4, 8] of the same compound?
A: Its kidney tissue morphology is “the kidney tissue had blurred glomerulus boundaries and many inflammatory cell infiltration, and the arrangement was not neat”.

Q: What about the liver tissue morphology [4, 8] of the same compound?
A: Its liver tissue morphology is “the lobuli hepatis had substantially obvious boundaries, the hepatocytes were plump and had normal morphology”.
